Experimental data taken from patent US4588718A, “Carboxy containing ester prodrugs of corticosteroids” (The Upjohn Company, priority 1984, dated 1986).

Tests used:
physchem = type: physicochemical; conditions: water, pH 4.8, water
Description: The compounds of this invention tend to be free flowing non-hygroscopic crystalline solids when in the acid form. While the aqueous solubility of these prodrugs is limited at very low pH values, these compounds become very soluble at pH values around 5 or higher. In this pH range the prodrugs self-associate to form micellar solutions.

[1] = type: physicochemical; conditions: for t 90% (time for 10% hydrolysis): 25° C., dilute aqueous solution, at the pH of optimum stability (Example 1: pH 4.7; Example 2: pH 4.6)
Experimental: The most important reaction affecting shelf-life is hydrolysis of the ester or carbonate linkage. From the hydrolysis rate constants determined at 25° C. at various pH values for dilute aqueous solutions of the compounds of this invention, estimates of ^t 90% (time for 10% hydrolysis) may be calculated. Such values, calculated at the pH of optimum stability, for the compounds of Examples 1 and 2 are listed in Table I. The actual shelf-life of formulations of the above compounds would be expected to differ from the above estimates for several reasons. (1) The solubility of the parent corticosteroid formed on hydrolysis may be exceeded prior to 10% degradation of the ester. Micelle formation by the intact prodrugs results in solubilization of free corticosteroid thereby prolonging shelf-life. The degree of solubilization varies with the ester concentration, nature of the pro-moiety, and the structure of the corticosteroid. (2) Other degradation reactions besides hydrolysis may be expected to occur. These should in general be diminished due to micelle formation and can in some cases be controlled by the addition of chelating agents, antioxidants, etc. (3) Micelle formation in concentrated solutions also results in stabilization of the ester linkage toward base catalyzed hydrolysis. For example, the base catalyzed hydrolysis rate constant in a 0.267M solution of the compound of Example 1 is less than 20% the rate constant in a 5×10^-4 M solution.

[2] = Bioconversion to the parent steroid in vivo (blood levels of test compound and parent steroid); conditions: four female monkeys, dose equivalent to 7.5 mg/kg, injection, blood samples 0 to 8 hours; compared with methylprednisolone hemisuccinate
Experimental: Since the compounds of Formula I are prodrugs of the parent corticosteroids, their efficacy depends on bioconversion to liberate the free corticoid in vivo. […] Four female monkeys having synchronized menstrual cycles were given on separate days three days apart doses of the compound of Examples 1 and 2 and methylprednisolone hemisuccinate equivalent to 7.5 mg/kg. Prior to dosing the monkeys were fasted overnight and each was anesthetized during dosing. A few mls of 0.01μ ion strength pH 5 sodium acetate buffer was added to the test compound and 1N sodium hydroxide was added slowly with rapid stirring until all the solids went into solution just prior to injection. Blood samples were withdrawn at times 0, 1/12, 1/4, 1, 2, 4 and 8 hours from administration of test compound and levels of test compound and parent steroid were measured.

| SMILES | solubility (physchem) [mg/mL] | pH of optimum stability [1] | base catalyzed hydrolysis rate constant in a 0.267M solution relative to the rate constant in a 5×10^-4 M solution ([1]; 0.267M vs 5×10^-4 M solution) | t 90% (time for 10% hydrolysis) [1] [years] | conversion to the parent steroid (methylprednisolone) in vivo [2] |
| --- | --- | --- | --- | --- | --- |
| C[C@H]1C[C@@H]2[C@H]([C@@H](O)C[C@@]3(C)[C@H]2CC[C@]3(O)C(=O)COC(=O)CCCCCS(=O)(=O)CC(=O)O)[C@@]2(C)C=CC(=O)C=C12 [Example 1, methylprednisolone, 21-[6'-(carboxymethylsulfonyl)hexanoate]] | > 160 | 4.7 | less than 20% | 2.0 | to at least the same extent as was methylprednisolone hemisuccinate |
| C[C@H]1C[C@@H]2[C@H]([C@@H](O)C[C@@]3(C)[C@H]2CC[C@]3(O)C(=O)COC(=O)CCCCC[S+]([O-])CC(=O)O)[C@@]2(C)C=CC(=O)C=C12 (some centres unmarked) [Example 2, methylprednisolone-21-[6'-(carboxymethylsulfinyl)hexanoate]] | – | 4.6 | – | 0.93 | to at least the same extent as was methylprednisolone hemisuccinate |
